Reference: patent publication US6020374A, “Biologically active synthetic dye compounds” (priority 1998, dated 2000)

Experiments:
MCF-7 cells = experiment: Cell death estimation, cycloheximide-exposed MCF-7 cells (trypan blue); format: cell-based
Procedure: Subconfluent cultures of MCF-7 cells in 35 mm dishes, were deprived of serum for 20 hours and then exposed to 30 μg/ml cycloheximide in the presence or absence of increasing concentrations of fractionated ATA, crude ATA or EB. After 48 hours, the cells were detached with trypsin. The medium and the detached cells were pooled and centrifuged at 1000×g for 10 mins. Cell viability was estimated by adding an equivalent volume of trypan blue solution to an aliquot of suspended cells. Stained and unstained cells were counted on a hemocytometer (10^3 cells were counted for each determination).
Subconfluent, 20 hours starved MCF-7 cells were exposed to 30 μg/ml
of cycloheximide in the presence of increasing
concentrations of fractionated ATA (0, 6, 12, 25, 50 μg/ml). After
48 hours, percent of dead cells was
determined as described under "Experimental procedures". In the
presence of cycloheximide only, 60-70% of
the cells were dead after 48 hours.
Cultures of […] cells were exposed to 30 μg CX for 48 hours in the presence of EB, ATA, IGF-1, or nothing.

[1] = test system: MAPK-1 (44 kDa) and MAPK-2 (42 kDa); experiment: Activation of MAPKs in MCF-7 cells (anti-active MAPK immunoblot); format: cell-based; details: 5 mins., ATA, EB each at 300 μg/ml, IGF-1 20 or 40 ng/ml
Procedure: FIG. 7 is the effect of ATA and EB on activation of MAPKs: MCF-7 cells were treated for 5 mins. with ATA, EB, each at 300 μg/ml, 20 ng/ml or 40 ng/ml IGF-1. Cell lysates, solubilized in Buffer C, were subjected to 12% SDS-PAGE and immunoblotted with an anti-active MAPK antibody. The membrane, after ECL detection, was stripped of bound antibody and blotted with an anti-MAPK antibody.
Nitrocellulose blots of proteins were incubated with the antibodies, and proteins were detected by enhanced chemiluminescence using horseradish peroxidase-labeled protein A, horseradish peroxidase-labeled anti rabbit IgG or horseradish peroxidase-labeled anti-mouse IgG.
The activated forms of MAPKs were detected by anti-active MAPK immunoblotting in the MCF-7 cell's lysates. […] Blotting with anti MAPKs antibodies confirms that similar amounts of MAPKs were present in treated and non-treated cells.

Compound	Percent dead cells (MCF-7 cells; CX only, 30 μg, 48 hours, Control without CX 10 ± 3) [%]	cytotoxicity at 30 µg/mL (MCF-7 cells; Homo sapiens, MCF7, 48 h, read-out: cells dead after 48 hours) [%]	Phosphorylated (active) isoforms MAPK-1 and MAPK-2 [1]
C[C@@H]1C[C@@H]([C@H](O)CC2CC(=O)NC(=O)C2)C(=O)[C@@H](C)C1 [CX, cycloheximide, reference compound]	56 ± 5	60 to 70	
CCCCCCCCCCCCCC(=O)O[C@@H]1[C@@H](C)[C@@]2(O)[C@@H](C=C(CO)C[C@]3(O)C(=O)C(C)=C[C@@H]23)[C@@H]2C(C)(C)[C@]12OC(C)=O [TPA, reference compound]			clearly detected
